Ends that are not written are not given here.
Columns and labels:
[1] = Rheology studies of 5:1 MC:CMC polymer blends; assay type: physicochemical; conditions: for Gelling temperature: 5:1 MC:CMC polymer blends, intersection of elastic and viscous modulus plots, mean ± SEM; for Effect of peptide conjugation on viscoelastic properties of the polymer: 5:1 blend, 20-40° C., vs unconjugated polymer
Procedure: Rheology measurements (Advanced Rheometer AR2000, TA Instruments, New Castle, Del.) were done on MC:CMC, MC:CMC-RGD, and MC:CMC-HepIII co-polymers mixed at a 5:1 ratio. The elastic modulus and viscous modulus were determined for temperatures ranging from 20-40° C., with 1° C. increments. The equilibration time was set at 1 min. and the frequency was set at 1 Hz. The gelling temperature was defined as the point of intersection between the plot for the elastic modulus and the plot for the viscous modulus. Measurements were done in triplicate.

[2] = test system: Chronic Myocardial Infarction Model; assay: Echocardiography in chronic myocardial infarction model after polymer injection; assay type: in vivo, Sprague-Dawley rats; conditions: rat; for Diastolic volume / MI wall thickness / Systolic volume: 5 weeks post-treatment vs baseline; for Fractional area change (FAC), 5 weeks post-treatment / LV ejection fraction, 5 weeks post-treatment: 100 μL injected into infarcted LV, 5 weeks post-treatment (10 weeks post-MI); for Fractional area change (FAC), 5 weeks post-treatment / LV ejection fraction, 5 weeks post-treatment / Fractional area change (FAC), baseline / LV ejection fraction, baseline: mean ± SD; for Fractional area change (FAC), baseline / LV ejection fraction, baseline: baseline 5 weeks post-MI, before treatment
Procedure: (§1) All surgical procedures were approved by the Committee for Animal Research of the University of California San Francisco (San Francisco, Calif.). Female Sprague-Dawley rats (225-250 g) were anesthetized with isoflurane. The chest was opened by a median sternotomy, and a single stitch of 7-0 Ticron suture (United States Surgical division of Tyco Healthcare, Norwalk, Conn.) was introduced around the left anterior descending (LAD) coronary artery and tightened to occlude for 30 min. before re-perfusing the vessel (Yu et al, J Thorac Cardiovasc Surg. 2009 Jan. 1, 2009; 137(1):180-7; Christman et a, J Am Coll Cardiol. 2004; 44(3):654-60; Christman et al, Tissue Eng. 2004; 10(3-4):403-9; Huang et al, Tissue Eng. 2005; 11(11-12):1860-6; Sievers et al, Magn Reson Med. 1989; 10:172-81; and Yu et al, Biomaterials. 2009; 30(5):751-6; which are hereby incorporated by reference in their entirety). Cardiac monitoring during the LAD occlusion confirmed the presence of myocardial injury as indicated by ST-elevation. The chest was then closed and the animal was allowed to recover for 5 weeks in order to allow for a LV aneurysm to fully develop. Transthoracic echocardiography was performed 5 weeks post-MI and 5 weeks post-treatment as previously described (Yu et al, J Thorac Cardiovasc Surg. 2009 Jan. 1, 2009; 137(1):180-7; and Litwin et al, Circulation. 1994; 89:345-54; which are hereby incorporated by reference in their entirety).
(§2) Five weeks post-MI and prior to treatment, we verified the LV aneurysmal formation and compromised LV function via echocardiography. The rats were randomized into MC:CMC, MC:CMC-RGD, MC:CMC-HepIII, or phosphate-buffered saline (PBS) control groups (N=8-9 rats/group). Using a closed chest echocardiography-guided injection technique (Springer et al, American Journal of Physiology—Heart and Circulatory Physiology. Sep. 1, 2005; 289(3):H1307-H14; which is hereby incorporated by reference in its entirety), 100 μL of polymer or PBS solution was injected into the infracted LV region of each heart, using a 1 mL syringe system and a 25-gauge needle.

[3] = test system: Chronic Myocardial Infarction Model; assay: Histology/immunohistochemistry of infarct region (infarct size, angiogenesis, cardiac cells); assay type: in vivo, Sprague-Dawley rats; conditions: rat, 5 weeks post-treatment; for Density of cardiomyocytes within the infarct region / Infarct size: compared to PBS negative control; for Capillary density in the infarct region: CD31 staining; for Capillary density in the infarct region / Arteriole density within the infarct region: mean ± SD; for Infarct size: Masson's trichrome; for Arteriole density within the infarct region: α-smooth muscle actin staining
Procedure: as §1, §2
Five weeks post-treatment (10 weeks post-MI), the rats were euthanized and their hearts were harvested, rinsed in cold saline, blotted-dry and fresh frozen in Tissue Tek O.C.T. freezing medium (Sakura Finetek, Torrance, Calif.). The hearts were sectioned into 10 μm slices. Sequential slides spanning the LV region were stained with Masson's trichrome stain and were used for morphological assessment of the infarct size as previously described (Christman et al, J Am Coll Cardiol. 2004; 44(3):654-60). Angiogenesis, arteriogenesis, and the number of cardiac cells within the infarct region were examined by immunohistochemical (IHC) staining with mouse monoclonal anti-CD31 (BD Biosciences Pharmingen, San Diego, Calif.) to visualize capillaries, mouse monoclonal anti-α-smooth muscle actin (Sigma, St. Louis, Mo.) to detect arterioles (Virag et al, Am J Pathol. 2003 Dec. 1, 2003; 163(6):2433-40; which is hereby incorporated by reference in its entirety), and mouse monoclonal anti-rat cardiac α-myosin heavy chain (Panorama Research Institute, Mountain View, Calif.) to detect the cardiac cells. The staining assay was performed using mouse-on-rat HRP-polymer (Biocare Medical, Concord, Calif.) on slides that were sequential to the slides stained with trichrome. Capillaries in the infarct region were identified as a single layer of CD31-positive cells with flattened morphology. Vessel density, cardiac cell density, and nuclei density was calculated on the basis of 5 high magnification fields per section that spanned the infarct and averaged among 5 sections for each sample. Arterioles within or bordering the infarct were identified as staining positive for α-smooth muscle actin and as having a visible lumen with a diameter between 10 and 100 μm (Yu et al, J Thorac Cardiovasc Surg. 2009 Jan. 1, 2009; 137(1):180-7; and Christman et a, J Am Coll Cardiol. 2004; 44(3):654-60). […]

MC:CMC-HepIII: Methylcellulose blended 5:1 with carboxymethylcellulose conjugated to HepIII peptide GEFYFDLRLKGDKY (SEQ ID NO: 2) (also: conjugated to carboxymethylcellulose, blended with methylcellulose (attachment site not given here))
Gelling temperature [1]: 26.85 ± 0.6256 °C
Effect of peptide conjugation on viscoelastic properties of the polymer [1]: decreased stiffness and viscosity
Diastolic volume [2]: significantly decreased
MI wall thickness [2]: increase
Systolic volume [2]: significantly decreased
Fractional area change (FAC), 5 weeks post-treatment [2]: 45.6±9.63%
LV ejection fraction, 5 weeks post-treatment [2]: 43.0±6.25%
Fractional area change (FAC), baseline [2]: 36.9±2.60%
LV ejection fraction, baseline [2]: 36.9±2.18%
Density of cardiomyocytes within the infarct region [3]: higher density
Capillary density in the infarct region [3]: 424±56 capillaries/mm^2
Infarct size [3]: statistically significant reduction
Arteriole density within the infarct region [3]: 28±10 arterioles/mm^2

MC:CMC-RGD: Methylcellulose blended 5:1 with carboxymethylcellulose conjugated to RGD peptide GRGDSPASSPISC (SEQ ID NO: 1) (also: conjugated to carboxymethylcellulose, blended with methylcellulose (attachment site not given here))
Gelling temperature [1]: 26.75 ± 0.4954 °C
Effect of peptide conjugation on viscoelastic properties of the polymer [1]: did not significantly alter
Diastolic volume [2]: significantly decreased
MI wall thickness [2]: increase
Systolic volume [2]: significantly decreased
Fractional area change (FAC), 5 weeks post-treatment [2]: 44.0±9.26%
LV ejection fraction, 5 weeks post-treatment [2]: 42.9±8.29%
Fractional area change (FAC), baseline [2]: 36.0±2.44%
LV ejection fraction, baseline [2]: 34.2±1.91%
Density of cardiomyocytes within the infarct region [3]: higher density
Capillary density in the infarct region [3]: 472±146 capillaries/mm^2
Infarct size [3]: statistically significant reduction
Arteriole density within the infarct region [3]: 32±12 arterioles/mm^2
